Series [1] concerns Escherichia coli ATCC 8739. The series is described as follows: MIC, broth double dilution. The format is cell-based. The conditions noted are these: 96-well plate, 37°C, 16 h, absorbance at 600 nm, mean of three independent experiments, ND = no bacteriostatic activity. The protocol:
(§1) The standard strain of C. albicans (ATCC 10231), three clinically isolated antibiotic-resistant strains (C. albicans 0065, C. albicans 0063, and C. albicans 6), E. coli (ATCC 8739), and S. aureus (ATCC 6538) were obtained from Kunming Medical University. T. rubrum was purchased from BeNa Culture Collection (BNCC, CAS no. 340195). Different strains of C. albicans, E. coli, and S. aureus were cultured with shaking at 37°C in YM medium and Luria-Bertani (LB) medium. T. rubrum was cultured at 28°C in potato dextrose agar (PDA) medium according to the manufacturer’s instructions.
(§2) According to CLSI protocols, the MIC is determined as a point where there is “zero detectable growth,” The MIC of blapstin against different fungal strains was determined by use of the double dilution method, namely, broth dilution determination. In brief, the different strains were grown in their corresponding media at 28°C or 37°C until they reached the exponential growth phase. Colistin E and fluconazole were used as positive controls. Blapstin was diluted to various concentrations in sterile saline: 100 μL of sterile saline was added to the second well of a sterile 96-well plate, and then 100 μL of blapstin was added to the first and second wells. The solution from the second well was double-diluted with sterile saline until the 11th well, from which 100 μL was removed. In the 12th well, no blapstin was added, and sterile saline was used as a negative control. Afterward, 100 μL of the diluted microbial solution was added to each well, followed by incubation at 37°C for 16 h. To assess the antifungal activity of blapstin against the T. rubrum strain, the spore germination rates were first determined microscopically with a hemocytometer. T. rubrum was diluted with normal saline to 1 × 10^5 CFU/mL and then incubated with various concentrations of blapstin at 28°C for 16 h. The absorbance at 600 nm was measured by a microplate reader (Epoch Etock; Biotek, USA) to estimate the inhibition of bacteria and fungi by blapstin.

Series [2] has as its system Staphylococcus aureus ATCC 6538. The series can be described thus: MIC, broth double dilution. It is filed as cell-based. The note with it: 96-well plate, 37°C, 16 h, absorbance at 600 nm, mean of three independent experiments, ND = no bacteriostatic activity. As to the method:
as §1, §2

In series [3] the test system is C. albicans ATCC 10231. The series can be described thus: Cell membrane potential changes, DiSC3(5) staining. It is filed as cell-based, Candida albicans. The conditions noted are these: 16× MIC, 8× MIC and 1× MIC; 0.5 μM DiSC3(5), 100 mM KCl, measured for 60 min; dose-dependent; weaker than 10 μM valinomycin. As to the method: DiSC3(5) is a fluorescent probe often used as a tracer dye to assess the mitochondrial membrane potential ([71]); therefore, we assessed the effects of blapstin on the cell membrane potential changes of C. albicans ATCC 10231 using DiSC3(5) staining. C. albicans ATCC 10231 was cultured in YM medium to logarithmic stage in a constant-temperature shaking machine at 37°C, centrifuged at 1,000 × g for 5 min to remove the supernatant, and washed with normal saline three times, and then normal saline containing 100 mM potassium chloride (KCl) was used to dilute the bacterial solution to an optical density at 600 nm (OD600) of 0.1. DiSC3(5) dye was dissolved by dimethyl sulfoxide (DMSO) into the mother solution and normal saline diluted with 15% DMSO so that the final concentration of DiSC3(5) added to the bacterial solution was 0.5 μM. The mixture was added to a special fluorescent 96-well plate with 190 μL in each well. The excitation/emission wavelengths were set at 622/670 nm, measurement was carried out with a multifunctional fluorescent enzyme labeling instrument (SynergyH1; Biotek, USA) until the value of the enzyme marker was stable, and then measurement was continued for 20 min. The final concentrations were 16× MIC, 8× MIC, and 1× MIC when 10 μL blapstin was added to the experimental group. […]

A short description of series [4]: Stability in human plasma (residual antifungal activity, inhibition zone). It is filed as in vitro ADME. The conditions noted are these: 225 μM in 100% human plasma. As to the method:
The stability of blapstin in human plasma was assessed using a previously described method ([67]). Blapstin (225 μM) was mixed with 100% human plasma and incubated at 37°C for 0, 2, 4, 6, 8, 10, 15, and 24 h, respectively. Then, the residual antifungal activity against C. albicans ATCC 10231 for each incubation period was evaluated using an inhibition zone assay. Nutrient YM solid medium was coated with C. albicans ATCC 10231, and then 10-μL aliquots of the plasma-peptide mixture were added to sterile, 5-mm-diameter filter paper disks placed on the medium. After 24 h of incubation, the diameter of the inhibition zone against C. albicans ATCC 10231 was measured in triplicate.

Bridge positions count the residues as written; N and C are the ends. Ends that are not written are not given here.

“VRVGPCDQVCSRTNPEKDECCRAHGHSGHSSCYGGRMNCYG (disulfide 6-21, 10-32, 20-39 (inferred)) [Blapstin]”: the MIC entry in series [1] and in series [2] was “did not affect” throughout. Besides, in series [3], the “Cellular DiSC3(5) fluorescence (membrane potential) compared with negative control” value is recorded as “increased significantly”. In addition, the “Residual antifungal activity after incubation in human plasma” value in series [4] (37°C, 24 h, inhibition zone against C. albicans ATCC 10231, triplicate) is “did not completely disappear”. Moreover, the “Stability in human plasma” value in series [4] (8 h at 37°C, inhibition zone against C. albicans ATCC 10231) was “high stability”.

The record behind these values is PMC10269622, “Blapstin, a Diapause-Specific Peptide-Like Peptide from the Chinese Medicinal Beetle Blaps rhynchopetera, Has Antifungal Function” (Microbiology Spectrum, 2023).
